Data taken from paper PMC4790851, “Iminosugars Inhibit Dengue Virus Production via Inhibition of ER Alpha-Glucosidases—Not Glycolipid Processing Enzymes” (PLoS Neglected Tropical Diseases, 2016).

Legend:
[1] = target: Human lysosome α-glucosidase (Homo sapiens, UniProt P10253); experiment: In vitro enzyme inhibition; format: biochemical; details: concentration required to inhibit the enzyme to 50% activity; read-out: IC50
[2] = target: T1, ER α-glucosidase I (Homo sapiens, UniProt Q13724); experiment: Free oligosaccharide analysis in MDMΦs: Glc3Man5GlcNAc1; format: cell-based; details: 48 h; for accumulation of Glc3Man5GlcNAc1: MDMΦs; for FOS representative of ER α-glucosidase I inhibition (Glc3Man5GlcNAc1): MNTD of iminosugar (NB-DNJ 100 μM), uninfected MDMΦs
T1 construct: endogenous in cells; host or cells: primary human monocyte-derived macrophages (MDMΦ)
T1 sequence (Q13724 1-837): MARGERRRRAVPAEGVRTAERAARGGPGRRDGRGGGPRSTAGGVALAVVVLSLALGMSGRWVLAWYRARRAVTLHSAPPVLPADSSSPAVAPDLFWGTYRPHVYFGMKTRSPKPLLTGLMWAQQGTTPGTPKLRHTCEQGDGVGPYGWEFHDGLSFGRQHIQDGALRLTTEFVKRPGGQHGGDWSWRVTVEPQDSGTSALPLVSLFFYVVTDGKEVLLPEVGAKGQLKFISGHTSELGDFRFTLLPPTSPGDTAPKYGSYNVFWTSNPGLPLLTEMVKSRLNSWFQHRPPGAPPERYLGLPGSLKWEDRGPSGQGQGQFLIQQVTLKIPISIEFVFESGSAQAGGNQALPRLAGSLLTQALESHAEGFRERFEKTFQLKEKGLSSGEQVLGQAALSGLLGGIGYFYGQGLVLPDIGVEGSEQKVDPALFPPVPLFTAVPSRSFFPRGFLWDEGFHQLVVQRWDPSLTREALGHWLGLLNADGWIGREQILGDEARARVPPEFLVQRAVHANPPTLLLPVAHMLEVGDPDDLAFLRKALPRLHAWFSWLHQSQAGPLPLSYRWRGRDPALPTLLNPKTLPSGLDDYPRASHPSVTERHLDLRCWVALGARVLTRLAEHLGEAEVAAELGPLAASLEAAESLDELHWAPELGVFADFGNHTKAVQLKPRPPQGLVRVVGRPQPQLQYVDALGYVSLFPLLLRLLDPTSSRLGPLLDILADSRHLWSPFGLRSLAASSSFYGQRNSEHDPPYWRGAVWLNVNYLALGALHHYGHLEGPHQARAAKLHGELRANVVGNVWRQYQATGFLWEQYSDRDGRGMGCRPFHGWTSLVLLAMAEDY
Protocol: MDMΦ were infected with DENV2 16681 diluted to a multiplicity of infection (MOI) of 1 in X-VIVO10 without supplements for 90 minutes (20°C, with rocking). Upon removal of virus, fresh MDMΦ growth medium without IL-4 but containing serial dilutions of drug or control was placed on the cells, and cells were incubated for 48 hours (37°C, 5% CO2). For collection of infectious virus, supernatant was harvested and centrifuged for 5 minutes (room temperature, 400 x g) to pellet any cells/debris, and supernatants were aliquoted and stored at -80°C until analysis by plaque assay. In the case of FOS and GSL assays where MDMΦ were uninfected, treatments were essentially as above except that no virus was added and cells were washed three times with sterile PBS after 24 or 48 hours as per sample time point. On the third wash, cells were removed from tissue culture plastic by mechanical disruption (scraping) and transferred to microcentrifuge tubes for centrifugation (room temperature, 4000 x g, 5 minutes). Cells were lysed by three cycles of freeze-thawing (alternating room temperature and –80°C) in deionised H2O and stored at –80°C for subsequent protein, FOS, or GSL assay.
MDMΦ FOS were detected as previously described by Alonzi et al.. Cells were cultured in 6-well plates as described above, and protein lysates were prepared according to the freeze/thaw protocol. Following cell lysis, samples were subjected to mixed-bed ion exchange and then lyophilised. FOS were labelled with 2-aminobenzoic acid (2-AA) and purified using a DPA-6S column (Sigma). Unconjugated 2-AA was removed by phase splitting with ethyl acetate, and samples were lyophilised and resuspended in water and then purified using a con-A column. Glycans were separated by normal phase-high performance liquid chromatography (NP-HPLC), and peak area was used to assess molar quantity in comparison to standards of known identity and quantity. FOS generation was normalised to protein concentration based on a modified Bradford assay as previously described. Briefly, cell lysates were added in a 1:1 volumetric ratio to 1x Bradford Quick Start Reagent (Bio-Rad) and incubated at 20°C for 5 minutes. Absorbance values (Axxx) at 595 nm and 420 nm were measured, and the ratio of A595 to A420 was used to determine protein concentration in comparison to a serially diluted standard of bovine serum albumin.

Compound | IC50 [1] | accumulation of Glc3Man5GlcNAc1 ([2]; 1 μM, all donors) | accumulation of Glc3Man5GlcNAc1 ([2]; 31.6 and 100 μM) | FOS representative of ER α-glucosidase I inhibition (Glc3Man5GlcNAc1) [2]
CCCC(=O)O[C@H]1CN2CC[C@H](O)[C@@H]2[C@@H](O)[C@@H]1O [Celgosivir, 6-O-butanoyl-castanospermine] | 93.2 µM | not Glc3Man5GlcNAc1 | increasing accumulation of Glc3Man5GlcNAc1 | –
CCCCN1C[C@H](O)[C@@H](O)[C@@H](O)[C@H]1CO [NB-DGJ] | > 1000 µM | – | – | fail to produce detectable ER α-glucosidase associated FOS
CCCCN1C[C@H](O)[C@@H](O)[C@H](O)[C@H]1CO [NB-DNJ, N-butyl-DNJ] | 0.27 µM | not Glc3Man5GlcNAc1 | – | accumulation of peaks representative of inhibition of both α-glucosidases
CCCCCCCCCN1C[C@H](O)[C@@H](O)[C@@H](O)[C@H]1CO [NN-DGJ] | > 1000 µM | – | – | fail to produce detectable ER α-glucosidase associated FOS
